Measurements: patent publication US9669034B2, “4-aryl-N-phenyl-1,3,5-triazin-2-amines containing a sulfoximine group” (BAYER INTELLECTUAL PROPERTY GMBH, priority 2011, dated 2017)
Converted amounts (≈) assume the structure as drawn. Where two headings read alike, the source gives them in different places.

Tests used:
[1] = molecular target: CDK2/CycE (Homo sapiens (Human), UniProt P24941); test: CDK2/CycE kinase assay (TR-FRET); type: biochemical; details: Method 2
Procedure, shortened: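 Enzyme was GST-tagged human CDK2 with GST-tagged human CycE, expressed in Sf9 insect cells and glutathione-affinity purified. The kinase reaction used a biotinylated peptide substrate, with inhibition measured by TR-FRET.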

[2] = tested on: HeLa human cervical tumour cells; test: Proliferation assay (crystal violet), HeLa; type: cell-based; details: Method 3, read-out: Inhibition of HeLa cell proliferation, IC50
Procedure, shortened: (§1)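 First, plate 3000 (NCI-H460, HeLa), 5000 (HeLa-MaTu-ADR) or 1500 (Caco-2) cells per well; next day, fix and stain a reference plate while the others get fresh medium containing compound at […] with 0.5% DMSO; after 4 days, fix, stain with crystal violet and read at 595 nm.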

[3] = Equilibrium shake flask solubility assay; type: physicochemical; details: pH 6.5, equilibrium shake flask method; for solubility thermodynamic at 24 h: phosphate buffer, pH 6.5, aqueous buffer, thermodynamic from solid, water
Protocol: 4. Equilibrium Shake Flask Solubility Assay:
The thermodynamic solubility of compounds in water was determined by an equilibrium shake flask method (see for example: E. H. Kerns, L. Di: Drug-like Properties: Concepts, Structure Design and Methods, 276-286, Burlington, Mass., Academic Press, 2008). A saturated solution of the drug was prepared and the solution was mixed for 24 h to ensure that equilibrium was reached. The solution was centrifuged to remove the insoluble fraction and the concentration of the compound in solution was determined using a standard calibration curve.
To prepare the sample, 2 mg solid compound was weighed in a 4 mL glass vial. 1 mL phosphate buffer pH 6.5 was added. The suspension was stirred for 24 hrs at room temperature. The solution was centrifuged afterwards. To prepare the sample for the standard calibration, 2 mg solid sample was dissolved in 30 mL acetonitrile. After sonification the solution was diluted with water to 50 mL. Sample and standards were quantified by HPLC with UV-detection. For each sample two injection volumes (5 and 50 μl) in triplicates were made. Three injection volumes (5 μl, 10 μl and 20 μl) were made for the standard.
Chromatographic Conditions:
The areas of sample- and standard injections as well as the calculation of the solubility value (in mg/l) were determined by using HPLC software (Waters Empower 2 FR).

[4] = molecular target: CDK9/CycT1 (Homo sapiens (Human), UniProt P50750); test: CDK9/CycT1 kinase assay (TR-FRET); type: biochemical; details: Method 1
Procedure, shortened: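 Recombinant full-length His-tagged human CDK9/CycT1, insect-cell expressed and Ni-NTA purified. Substrate is a biotinylated peptide (biotin-Ttds-linked). Kinase inhibition is read out by TR-FRET.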

[5] = tested on: HeLa-MaTu-ADR, multidrug-resistant human cervical carcinoma cells; test: Proliferation assay (crystal violet), HeLa-MaTu-ADR; type: cell-based; details: Method 3, read-out: Inhibition of HeLa/MaTu/ADR cell proliferation, IC50
Procedure, shortened: as §1

[6] = tested on: NCI-H460, human non-small cell lung carcinoma cells; test: Proliferation assay (crystal violet), NCI-H460; type: cell-based; details: Method 3, read-out: Inhibition of NCI-H460 cell proliferation, IC50
Procedure, shortened: as §1

[7] = tested on: B16F10 mouse melanoma cells; test: Proliferation assay (crystal violet), B16F10; type: cell-based; details: Method 3, read-out: Inhibition of B16F10 cell proliferation, IC50
Procedure, shortened: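 B16F10 mouse melanoma cells (ATCC CRL-6475) were seeded at 1000 cells/well into 96-well plates in 200 μL growth medium containing 10% fetal calf serum. After 24 hours, one zero-point plate was stained with crystal violet. The remaining plates got fresh medium with test substances (0 M and […], 0.5% dimethylsulfoxide) and were incubated for 4 days.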

[8] = tested on: DU145, hormone-independent human prostate carcinoma cells; test: Proliferation assay (crystal violet), DU145; type: cell-based; details: Method 3, read-out: Inhibition of DU145 cell proliferation, IC50
Procedure, shortened: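 DU145 hormone-independent human prostate carcinoma cells (ATCC HTB-81) were seeded at 5000 cells/well in 96-well plates in 200 μL growth medium with 10% fetal calf serum. After 24 hours, a zero-point plate was stained. The other plates got fresh medium containing test substances ([…], 0.5% dimethylsulfoxide) and were incubated for 4 days.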

[9] = tested on: Caco-2 human colorectal carcinoma; test: Proliferation assay (crystal violet), Caco-2; type: cell-based; details: Method 3, read-out: Inhibition of Caco-2 cell proliferation, IC50
Procedure, shortened: as §1

[10] = Homo sapiens, NCI-H460, NCI-H460 cells
[11] = Mus musculus, B16-F10, B16F10 cells
[12] = Homo sapiens, Caco-2, Caco-2 cells
[13] = Homo sapiens, DU-145, DU145 cells

Chain of CDK9/CycT1 (P50750 whole entry): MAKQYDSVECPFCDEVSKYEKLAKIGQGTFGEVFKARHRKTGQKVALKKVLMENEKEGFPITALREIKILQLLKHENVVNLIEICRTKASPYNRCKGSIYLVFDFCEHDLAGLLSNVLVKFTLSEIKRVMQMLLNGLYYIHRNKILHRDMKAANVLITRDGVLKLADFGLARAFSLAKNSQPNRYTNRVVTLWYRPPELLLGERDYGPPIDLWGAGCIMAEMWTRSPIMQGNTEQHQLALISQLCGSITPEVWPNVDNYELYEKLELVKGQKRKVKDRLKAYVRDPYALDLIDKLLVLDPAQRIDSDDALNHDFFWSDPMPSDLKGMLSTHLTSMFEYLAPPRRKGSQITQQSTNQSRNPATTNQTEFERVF
Chain of CDK9/CycT1 (O60563 whole entry partner): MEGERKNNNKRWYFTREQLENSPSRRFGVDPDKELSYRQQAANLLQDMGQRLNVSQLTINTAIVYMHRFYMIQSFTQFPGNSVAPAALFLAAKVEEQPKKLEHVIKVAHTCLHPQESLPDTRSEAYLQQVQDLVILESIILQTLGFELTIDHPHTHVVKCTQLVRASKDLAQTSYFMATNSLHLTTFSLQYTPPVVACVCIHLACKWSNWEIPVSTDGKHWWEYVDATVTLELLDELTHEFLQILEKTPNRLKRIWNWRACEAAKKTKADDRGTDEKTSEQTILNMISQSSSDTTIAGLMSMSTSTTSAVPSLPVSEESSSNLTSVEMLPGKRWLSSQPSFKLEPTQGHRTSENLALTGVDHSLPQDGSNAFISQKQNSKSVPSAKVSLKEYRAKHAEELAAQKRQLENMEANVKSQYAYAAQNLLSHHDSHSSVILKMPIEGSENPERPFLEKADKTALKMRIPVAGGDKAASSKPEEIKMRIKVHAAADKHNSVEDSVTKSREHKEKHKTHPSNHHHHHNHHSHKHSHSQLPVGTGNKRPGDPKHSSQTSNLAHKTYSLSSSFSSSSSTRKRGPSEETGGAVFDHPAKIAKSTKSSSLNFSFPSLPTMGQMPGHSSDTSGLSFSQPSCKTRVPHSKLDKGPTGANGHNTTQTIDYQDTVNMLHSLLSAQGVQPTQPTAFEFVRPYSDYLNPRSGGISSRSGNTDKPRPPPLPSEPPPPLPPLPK

| IC50 [1] | IC50 ([2]; Homo sapiens, HeLa) | solubility thermodynamic at 24 h [3] | IC50 [4] | SMILES | also measured |
| --- | --- | --- | --- | --- | --- |
| 1300 nM | 1100 nM | 130 µg/mL (≈ 321 µM) | 28 nM | COc1cc(F)c(F)cc1-c1ncnc(Nc2cccc(CS(C)(=N)=O)c2)n1 (racemic) [Example 10, (rac)-4-(4,5-Difluoro-2-methoxyphenyl)-N-{3-[(S-methylsulfonimidoyl)methyl]phenyl}-1,3,5-triazin-2-amine] |  |
| 2300 nM | 1100 nM | 104 µg/mL (≈ 250 µM) | 29 nM | CCCOc1cc(F)ccc1-c1ncnc(Nc2cccc(CS(C)(=N)=O)c2)n1 (racemic) [Example 91, (rac)-4-(4-Fluoro-2-propoxyphenyl)-N-{3-[(S-methylsulfonimidoyl)methyl]phenyl}-1,3,5-triazin-2-amine] |  |
| 2800 nM |  | 787 µg/mL (≈ 2030 µM) | 91 nM | COc1ccc(F)cc1-c1ncnc(Nc2cccc(CS(C)(=N)=O)c2)n1 (single isomer, unassigned) [Example 22, 4-(5-Fluoro-2-methoxyphenyl)-N-{3-[(S-methylsulfonimidoyl)methyl]phenyl}-1,3,5-triazin-2-amine] |  |
| 5600 nM |  |  | 110 nM | COc1ccc(F)cc1-c1ncnc(Nc2cccc(CS(C)(=N)=O)c2)n1 (single isomer, unassigned) [Example 23, 4-(5-Fluoro-2-methoxyphenyl)-N-{3-[(S-methylsulfonimidoyl)methyl]phenyl}-1,3,5-triazin-2-amine] | Thermodynamic solubility in water at pH 6.5 [3]: 888 mg/l |
| 670 nM |  | 1000 µg/mL (≈ 2530 µM) |  | CS(=N)(=O)Cc1cccc(Nc2ncnc(-c3cccc4c3OCCC4)n2)c1 (single isomer, unassigned) [Example 31, 4-(3,4-Dihydro-2H-chromen-8-yl)-N-{3-[(S-methylsulfonimidoyl)methyl]phenyl}-1,3,5-triazin-2-amine] |  |
| 1600 nM |  |  |  | CS(=N)(=O)Cc1cccc(Nc2ncnc(-c3cccc4c3OCCC4)n2)c1 (single isomer, unassigned) [Example 32, 4-(3,4-Dihydro-2H-chromen-8-yl)-N-{3-[(S-methylsulfonimidoyl)methyl]phenyl}-1,3,5-triazin-2-amine] | Thermodynamic solubility in water at pH 6.5 [3]: 1000 mg/l |
| 1500 nM | 1100 nM | 819 µg/mL (≈ 2060 µM) | 29 nM | CS(=N)(=O)Cc1cccc(Nc2ncnc(-c3cccc4c3OCCO4)n2)c1 (single isomer, unassigned) [Example 39, 4-(2,3-Dihydro-1,4-benzodioxin-5-yl)-N-{3-[(S-methylsulfonimidoyl)methyl]phenyl}-1,3,5-triazin-2-amine] |  |
| 1800 nM |  |  | 25 nM | CS(=N)(=O)Cc1cccc(Nc2ncnc(-c3cccc4c3OCCO4)n2)c1 (single isomer, unassigned) [Example 40, 4-(2,3-Dihydro-1,4-benzodioxin-5-yl)-N-{3-[(S-methylsulfonimidoyl)methyl]phenyl}-1,3,5-triazin-2-amine] | IC50 [2]: 1100 nM; Thermodynamic solubility in water at pH 6.5 [3]: 865 mg/l |
| 650 nM |  | 88 µg/mL (≈ 213 µM) | 7 nM | COc1cc(F)ccc1-c1ncnc(Nc2cccc(CS(C)(=O)=NC#N)c2)n1 (single isomer, unassigned) [Example 49, [(3-{[4-(4-fluoro-2-methoxyphenyl)-1,3,5-triazin-2-yl]amino}benzyl)(methyl)oxido-λ^6-sulfanylidene]cyanamide] |  |
| 850 nM |  | 120 µg/mL (≈ 296 µM) |  | COc1cc(F)ccc1-c1ncnc(Nc2cc(F)cc(CS(C)(=N)=O)c2)n1 (single isomer, unassigned) [Example 54, 4-(4-Fluoro-2-methoxyphenyl)-N-{3-fluoro-5-[(S-methylsulfonimidoyl)methyl]phenyl}-1,3,5-triazin-2-amine] |  |
| 590 nM | 310 nM |  | 3 nM | CC#CCOc1cc(F)ccc1-c1ncnc(Nc2cccc(CS(C)(=N)=O)c2)n1 (single isomer, unassigned) [Example 74, 4-[2-(But-2-yn-1-yloxy)-4-fluorophenyl]-N-{3-[(S-methylsulfonimidoyl)methyl]phenyl}-1,3,5-triazin-2-amine] | IC50 ([5]; Homo sapiens, HeLa): 340 nM; IC50 [6, 10]: 330 nM; IC50 [7, 11]: 340 nM; IC50 ([8]; DU145 cells): 360 nM; IC50 [9, 12]: 390 nM |
| 450 nM |  |  | 4 nM | CC#CCOc1cc(F)ccc1-c1ncnc(Nc2cccc(CS(C)(=N)=O)c2)n1 (single isomer, unassigned) [Example 75, 4-[2-(But-2-yn-1-yloxy)-4-fluorophenyl]-N-{3-[(S-methylsulfonimidoyl)methyl]phenyl}-1,3,5-triazin-2-amine] | IC50 [5]: 210 nM; IC50 ([6]; NCI-H460 cells): 220 nM; IC50 ([7]; B16F10 cells): 240 nM; IC50 ([8]; DU145 cells): 170 nM; IC50 [2]: 260 nM; IC50 ([9]; Caco-2 cells): 310 nM |
| 580 nM | 650 nM |  | 9 nM | C#CCOc1cc(F)ccc1-c1ncnc(Nc2cccc(CS(C)(=N)=O)c2)n1 (single isomer, unassigned) [Example 78, 4-[4-Fluoro-2-(prop-2-yn-1-yloxy)phenyl]-N-{3-[(S-methylsulfonimidoyl)methyl]phenyl}-1,3,5-triazin-2-amine] | IC50 ([5]; Homo sapiens, HeLa): 260 nM; IC50 [6, 10]: 390 nM; IC50 [7, 11]: 500 nM; IC50 [8, 13]: 370 nM; IC50 [9, 12]: 760 nM |
| 440 nM |  |  | 5 nM | C#CCOc1cc(F)ccc1-c1ncnc(Nc2cccc(CS(C)(=N)=O)c2)n1 (single isomer, unassigned) [Example 79, 4-[4-Fluoro-2-(prop-2-yn-1-yloxy)phenyl]-N-{3-[(S-methylsulfonimidoyl)methyl]phenyl}-1,3,5-triazin-2-amine] | IC50 [5]: 350 nM; IC50 ([6]; NCI-H460 cells): 420 nM; IC50 ([7]; B16F10 cells): 370 nM; IC50 ([8]; DU145 cells): 380 nM; IC50 [2]: 440 nM; IC50 ([9]; Caco-2 cells): 390 nM |
| 270 nM | 110 nM |  | 2 nM | CS(=N)(=O)Cc1cccc(Nc2ncnc(-c3ccc(F)cc3OCc3ccnc(F)c3)n2)c1 (single isomer, unassigned) [Example 83, 4-{4-Fluoro-2-[(2-fluoropyridin-4-yl)methoxy]phenyl}-N-{3-[(S-methylsulfonimidoyl)methyl]phenyl}-1,3,5-triazin-2-amine] | IC50 ([5]; Homo sapiens, HeLa): 640 nM; IC50 [6, 10]: 180 nM; IC50 [7, 11]: 220 nM; IC50 [8, 13]: 180 nM; IC50 [9, 12]: 210 nM |
| 220 nM |  |  | 3 nM | CS(=N)(=O)Cc1cccc(Nc2ncnc(-c3ccc(F)cc3OCc3ccnc(F)c3)n2)c1 (single isomer, unassigned) [Example 84, 4-{4-Fluoro-2-[(2-fluoropyridin-4-yl)methoxy]phenyl}-N-{3-[(S-methylsulfonimidoyl)methyl]phenyl}-1,3,5-triazin-2-amine] | IC50 [5]: 340 nM; IC50 ([6]; NCI-H460 cells): 180 nM; IC50 ([7]; B16F10 cells): 210 nM; IC50 ([8]; DU145 cells): 180 nM; IC50 [2]: 120 nM; IC50 ([9]; Caco-2 cells): 180 nM |
